Assay results published in patent US20240217953A1, “BICYCLIC SUBSTITUTED AROMATIC CARBOXYLIC ACID COMPOUNDS” (CHIA TAI TIANQING PHARMACEUTICAL GROUP CO., LTD., priority 2021, published 2024).
pIC50: −log10 of the molar value.

What was measured:
[1] = target: human complement Factor B protein (Homo sapiens, UniProt P00751); assay: Human complement Factor B protein binding determination (TR-FRET method); settings: biotinylated Factor B 25 nM, Cy5-labeled probe 75 nM, PBS pH 7.4, 2 h
Method: To determine the binding activity of the test compounds to human complement Factor B protein by using TR-FRET method.
Drugs were added to phosphate buffered saline PBS (pH 7.4) starting at 10 μM with 4-fold dilution and 10 concentrations in total. […] Time-resolved fluorescence resonance energy transfer (TR-FRET) data was measured using 330 nm as the excitation wavelength and 665 nm as the emission wavelength.

[2] = target: complement alternative pathway in human serum; assay: Inhibition of Wieslab complement alternative pathway activation (enzyme activity determination); assay type: biochemical; settings: human serum diluted 1:23, Wieslab alternative pathway kit, absorbance at 405 nm; read-out: IC50 for alternative pathway membrane attack complex (AP MAC)
Method: To determine the inhibitory activity of the test compounds against the complement alternative pathway in human serum by using a Wieslab complement system alternative pathway kit.
The serum was diluted with a diluent (1:23). Drugs were added to the diluted serum in 8 concentration gradients, with the highest concentration of 10 mM or 50 mM and 5-fold gradient dilution. The resulting mixture was incubated at room temperature for 15 min. The compound and the serum mixture were added to a 96-well plate (100 μL/well) provided in the kit and activated at 37° C. for 1 h. The mixture was washed three times with a washing buffer. The detection antibody (100 μL) provided in the kit was added and the mixture was incubated at room temperature for 30 min. The mixture was washed three times with a washing buffer. A substrate (100 μL) was added and the mixture was incubated at room temperature for 30 min. The absorbance at 405 nm was measured using a microplate reader.

[3] = Pharmacokinetic study in rats; assay type: in vivo; settings: rat; male SD rats, oral intragastric administration, 10 mg/kg, plasma
Method: To determine the drug concentration in the plasma of the test animals (male SD rats) at different time points after oral intragastric administration of the compounds disclosed herein by an LC/MS/MS method. To investigate the pharmacokinetic performance of the compounds disclosed herein in rats and to evaluate the pharmacokinetic characteristics.
Healthy male rats weighing 200-300 g, 2 rats in each group.
The compound disclosed herein was formulated into a 1 mg/mL clear solution with an aqueous solution of 0.5% MC (4000 cP)/0.5% Tween 80. Rats, after fasting overnight, were subjected to oral intragastric administration at a dose of 10 mg/kg. Blood was collected before administration and 0.25, 0.5, 1, 2, 4, 7, and 24 h after the administration, placed in heparin anticoagulation tubes, and centrifuged at 7000 rpm (5204 g) at 4° C. The plasma was separated and stored at −80° C. Four hours after administration, feeding was resumed. LC/MS/MS method was used to determine the content of the test compound in the plasma of the rats after oral administration. The plasma samples were analyzed after pretreatment to precipitate proteins.

Sequence of human complement Factor B protein (P00751 26-764): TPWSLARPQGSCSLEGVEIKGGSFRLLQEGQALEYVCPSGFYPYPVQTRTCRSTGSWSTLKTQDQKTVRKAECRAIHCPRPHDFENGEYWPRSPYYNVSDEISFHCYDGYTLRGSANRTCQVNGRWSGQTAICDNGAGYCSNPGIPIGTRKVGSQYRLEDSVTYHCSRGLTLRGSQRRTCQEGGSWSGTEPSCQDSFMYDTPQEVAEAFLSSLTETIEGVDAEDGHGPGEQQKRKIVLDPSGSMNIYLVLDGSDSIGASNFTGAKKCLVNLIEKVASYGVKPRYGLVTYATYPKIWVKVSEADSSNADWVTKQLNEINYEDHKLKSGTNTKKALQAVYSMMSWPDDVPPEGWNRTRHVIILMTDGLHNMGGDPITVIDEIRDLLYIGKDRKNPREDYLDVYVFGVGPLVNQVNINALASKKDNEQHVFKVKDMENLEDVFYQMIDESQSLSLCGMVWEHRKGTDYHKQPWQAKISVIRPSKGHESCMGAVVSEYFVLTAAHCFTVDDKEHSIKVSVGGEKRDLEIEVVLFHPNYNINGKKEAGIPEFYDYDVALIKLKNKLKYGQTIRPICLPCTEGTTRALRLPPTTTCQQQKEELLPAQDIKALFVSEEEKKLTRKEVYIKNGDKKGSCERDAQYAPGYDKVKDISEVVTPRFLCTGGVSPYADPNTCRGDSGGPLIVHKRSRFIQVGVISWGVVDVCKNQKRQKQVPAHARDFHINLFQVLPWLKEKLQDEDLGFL

SMILES | pIC50 [1] | pIC50 [2] | other results
COc1cc(C)c2[nH]ccc2c1CN1C2CCCC1(c1ccc(C(=O)O)cc1)CC2 (single isomer, unassigned) [Compound 7A] | > 7.00 | > 7.00 | 
CCOC1CC2CCC(c3ccc(C(=O)O)cn3)(C1)N2Cc1c(OC)cc(C)c2[nH]ccc12 (single isomer, unassigned) [Compound 9A] | > 7.00 | > 7.00 | 
COc1cc(C)c2[nH]ccc2c1CN1CCC2CC1(c1ccc(C(=O)O)cc1)CCN2CC(F)(F)F (stereo not drawn) [Compound 2] |  | > 7.00 | AUC(0-t) [3]: 14.7 µM·h; Cmax [3]: 3.25 µM; Tmax [3]: 0.5 h; half-life [3]: 4.65 h
COc1cc(C)c2[nH]ccc2c1CN1CCC2CC1(c1ccc(C(=O)O)cc1)CCN2CC(F)F (stereo not drawn) [Compound 3] |  | > 7.00 | 
CCOC1CC2CCC(c3ccc(C(=O)O)nc3)(C1)N2Cc1c(OC)cc(C)c2[nH]ccc12 (stereo not drawn) [Compound 11] | > 7.00 |  | 
COc1cc(C)c2[nH]ccc2c1CN1C2CCC1(c1ccc(C(=O)O)cc1)CC(C)C2 (stereo not drawn) [Compound 12] | > 7.00 |  | 
